“And” between values parts separate entries of the source, which are not always exact repeats. Equal entries are not always repeated.

Experimental findings from US10918713B2, “Epitopes from allergen proteins and methods and uses for immune response modulation” (LA JOLLA INSTITUTE FOR ALLERGY AND IMMUNOLOGY, priority 2012, dated 2021) are described below.

Holding throughout (format): cell-based, human
The test system of experiment [1] is PBMC from allergic donors. In words: IL-5 ELISPOT with extract-stimulated short-term lines. Conditions: positive donor/peptide response. The protocol: (§1) Spots were counted by computer-assisted image analysis (Zeiss, KS-ELISPOT reader, Munich, Germany).
(§2) Each assay was performed in triplicate. The level of statistical significance was determined with a Student's t-test using the mean of triplicate values of the response against relevant pools or individual peptides versus the response against the DMSO control.

The test system of experiment [2] is PBMC from allergic donors. Kind of experiment: IFN-γ ELISPOT with extract-stimulated short-term lines. Conditions: positive donor/peptide response. The protocol:
as §1, §2

Experiment [3] relates to PBMC from allergic donors. In words: Dual ELISPOT, total IL-5 and IFN-γ response (SFC). Particulars: sum of IFNg and IL-5. The method, then:
as §1, §2

For the molecule 3324.1104 (LGFFKKEALPQCAQV), the “Response (SFC/10^6) IL-5” value in experiment [1] (one donor per table line) was 573 SFC/10^6. In addition, in experiment [2] (one donor per table line), the “Response (SFC/10^6) IFNg” value is 53 SFC/10^6. In addition, in experiment [3] (one donor per table line), the “Response (SFC/10^6) Total” value is given as 627 SFC/10^6.

For 3324.1168 (NAGFKAAVAAAAVVP), the “Response (SFC/10^6) IL-5” value in experiment [1] (each table line is one donor) was 873 SFC/10^6 and 977 SFC/10^6 and 248 SFC/10^6. Further, the “Response (SFC/10^6) IFNg” value in experiment [2] (each table line is one donor) is given as 850 SFC/10^6. Besides, the “Response (SFC/10^6) Total” value in experiment [3] (each table line is one donor) was 1723 SFC/10^6 and 977 SFC/10^6 and 248 SFC/10^6.

On to 3324.1586 (KAVEAYLVAHPDLYK), for which the “Response (SFC/10^6) IL-5” value in experiment [1] (one donor per table line) is 83 SFC/10^6 and 53 SFC/10^6 and 143 SFC/10^6 and 443 SFC/10^6. Also, the “Response (SFC/10^6) IFNg” value in experiment [2] (one donor per table line) is recorded as 110 SFC/10^6. Further, the “Response (SFC/10^6) Total” value in experiment [3] (one donor per table line) was 83 SFC/10^6 and 53 SFC/10^6 and 143 SFC/10^6 and 553 SFC/10^6.

Regarding 3324.1592 (LGRAWFEAARVVFSY), the “Response (SFC/10^6) IL-5” value in experiment [1] (each table line is one donor) is recorded as 1430 SFC/10^6. In experiment [2] (each table line is one donor), the “Response (SFC/10^6) IFNg” value was found to be 120 SFC/10^6. Also, the “Response (SFC/10^6) Total” value in experiment [3] (each table line is one donor) stood at 1550 SFC/10^6.

Consider 3324.1625 (GFYLQWAVHSFRITN), for which, in experiment [1] (each table line is one donor), the “Response (SFC/10^6) IL-5” value stood at 143 SFC/10^6. Moreover, the “Response (SFC/10^6) IFNg” value in experiment [2] (each table line is one donor) was 193 SFC/10^6. Besides, the “Response (SFC/10^6) Total” value in experiment [3] (each table line is one donor) amounted to 337 SFC/10^6.

Take 3337.0008 (WLDAKSTWYGKPTGA): the “Response (SFC/10^6) IL-5” value in experiment [1] (one donor per table line) came out at 57 SFC/10^6. In addition, the “Response (SFC/10^6) IFNg” value in experiment [2] (one donor per table line) is 140 SFC/10^6 and 283 SFC/10^6 and 163 SFC/10^6. For the same molecule, the “Response (SFC/10^6) Total” value in experiment [3] (one donor per table line) was 140 SFC/10^6 and 57 SFC/10^6 and 283 SFC/10^6 and 163 SFC/10^6.

In the case of 3337.0028 (EPIAPYHFDLSGHAF), in experiment [1] (one donor per table line), the “Response (SFC/10^6) IL-5” value stood at 97 SFC/10^6. Besides, in experiment [2] (one donor per table line), the “Response (SFC/10^6) IFNg” value was found to be 157 SFC/10^6. Also, the “Response (SFC/10^6) Total” value in experiment [3] (one donor per table line) is given as 253 SFC/10^6.

As for 3337.0044 (IKLVKSSRPDCSEIP), in experiment [1] (each table line is one donor), the “Response (SFC/10^6) IL-5” value amounted to 233 SFC/10^6. In addition, the “Response (SFC/10^6) IFNg” value in experiment [2] (each table line is one donor) was 90 SFC/10^6. The “Response (SFC/10^6) Total” value in experiment [3] (each table line is one donor) is 90 SFC/10^6 and 233 SFC/10^6.

Consider `CC[C@H](C)[C@H](NC(=O)[C@H](CC(N)=O)NC(=O)[C@H](CC(C)C)NC(=O)[C@H](CC(N)=O)NC(=O)[C@H](CCCCN)NC(=O)[C@H](CO)NC(=O)[C@H](Cc1ccccc1)NC(=O)[C@@H](NC(=O)[C@@H](NC(=O)[C@H](Cc1c[nH]c2ccccc12)NC(=O)[C@H](CC(C)C)NC(=O)[C@H](CO)NC(=O)[C@H](CCCNC(=N)N)NC(=O)[C@@H](N)CCC(=O)O)[C@@H](C)CC)[C@@H](C)CC)C(=O)N[C@@H](CCCCN)C(=O)O` [3324.0517], for which, in experiment [1] (one donor per table line), the “Response (SFC/10^6) IL-5” value was determined as 117 SFC/10^6. Further, in experiment [2] (one donor per table line), the “Response (SFC/10^6) IFNg” value amounted to 97 SFC/10^6. The “Response (SFC/10^6) Total” value in experiment [3] (one donor per table line) was 117 SFC/10^6 and 97 SFC/10^6.

As for `CC[C@H](C)[C@H](NC(=O)[C@H](CC(N)=O)NC(=O)[C@@H](NC(=O)[C@H](CC(=O)O)NC(=O)[C@@H](N)CCC(=O)O)[C@@H](C)O)C(=O)N[C@@H](Cc1ccc(O)cc1)C(=O)N[C@@H](CC(N)=O)C(=O)N[C@@H](CO)C(=O)N[C@@H](CC(N)=O)C(=O)N[C@@H](CCC(=O)O)C(=O)N[C@@H](C)C(=O)N[C@@H](Cc1ccccc1)C(=O)N[C@@H](CCCCN)C(=O)N[C@H](C(=O)N[C@@H](CCC(=O)O)C(=O)O)C(C)C` [3324.0606], the “Response (SFC/10^6) IL-5” value in experiment [1] (one donor per table line) is 427 SFC/10^6. Moreover, the “Response (SFC/10^6) IFNg” value in experiment [2] (one donor per table line) is 240 SFC/10^6 and 73 SFC/10^6. Besides, in experiment [3] (one donor per table line), the “Response (SFC/10^6) Total” value was 427 SFC/10^6 and 240 SFC/10^6 and 73 SFC/10^6.

For `CC[C@H](C)[C@H](N)C(=O)N[C@@H](Cc1ccccc1)C(=O)N[C@@H](CO)C(=O)N[C@@H](CCC(N)=O)C(=O)N[C@@H](CC(N)=O)C(=O)N[C@@H](CCSC)C(=O)N[C@@H](CC(N)=O)C(=O)N[C@H](C(=O)N[C@@H](CCCCN)C(=O)N[C@@H](CC(C)C)C(=O)N[C@@H](CCC(N)=O)C(=O)N[C@@H](CCSC)C(=O)N1CCC[C@H]1C(=O)N[C@@H](CC(C)C)C(=O)N[C@@H](Cc1ccc(O)cc1)C(=O)O)[C@@H](C)CC` [3324.0607], in experiment [1] (one donor per table line), the “Response (SFC/10^6) IL-5” value is recorded as 2607 SFC/10^6. Also, in experiment [2] (one donor per table line), the “Response (SFC/10^6) IFNg” value is on record as 70 SFC/10^6. The “Response (SFC/10^6) Total” value in experiment [3] (one donor per table line) was 2607 SFC/10^6 and 70 SFC/10^6.

In the case of `CC[C@H](C)[C@H](NC(=O)[C@H](CC(N)=O)NC(=O)[C@H](CCSC)NC(=O)[C@H](CC(N)=O)NC(=O)[C@H](CCC(N)=O)NC(=O)[C@H](CO)NC(=O)[C@H](Cc1ccccc1)NC(=O)[C@@H](NC(=O)[C@@H](NC(=O)[C@H](Cc1c[nH]c2ccccc12)NC(=O)[C@H](CC(C)C)NC(=O)[C@H](C)NC(=O)[C@H](CCCCN)NC(=O)[C@@H](N)CCC(=O)O)[C@@H](C)CC)[C@@H](C)CC)C(=O)N[C@@H](CCCCN)C(=O)O` [3324.0615], the “Response (SFC/10^6) IL-5” value in experiment [1] (one donor per table line) is on record as 67 SFC/10^6. In addition, in experiment [2] (one donor per table line), the “Response (SFC/10^6) IFNg” value is given as 333 SFC/10^6. Further, the “Response (SFC/10^6) Total” value in experiment [3] (one donor per table line) worked out at 400 SFC/10^6.

Turning to `CC[C@H](C)[C@H](N)C(=O)N[C@H](C(=O)N[C@@H](Cc1ccccc1)C(=O)N[C@@H](CO)C(=O)N[C@@H](CCC(N)=O)C(=O)N[C@@H](CC(N)=O)C(=O)N[C@@H](CCSC)C(=O)N[C@@H](CC(N)=O)C(=O)N[C@H](C(=O)N[C@@H](CCCCN)C(=O)N[C@@H](CC(C)C)C(=O)N[C@@H](CCCCN)C(=O)N[C@@H](CCSC)C(=O)N1CCC[C@H]1C(=O)N[C@@H](CC(C)C)C(=O)O)[C@@H](C)CC)[C@@H](C)CC` [3324.0618], in experiment [1] (one donor per table line), the “Response (SFC/10^6) IL-5” value came out at 3067 SFC/10^6. Moreover, the “Response (SFC/10^6) IFNg” value in experiment [2] (one donor per table line) was 80 SFC/10^6 and 73 SFC/10^6. The “Response (SFC/10^6) Total” value in experiment [3] (one donor per table line) is 80 SFC/10^6 and 3067 SFC/10^6 and 73 SFC/10^6.

Turning to `CC[C@H](C)[C@H](NC(=O)[C@@H](N)CC(=O)O)C(=O)N[C@@H](Cc1ccc(O)cc1)C(=O)N[C@@H](CC(N)=O)C(=O)N[C@@H](Cc1ccc(O)cc1)C(=O)N[C@@H](CCSC)C(=O)N[C@@H](CCC(=O)O)C(=O)N1CCC[C@H]1C(=O)N[C@@H](Cc1ccc(O)cc1)C(=O)N[C@H](C(=O)N[C@@H](CO)C(=O)N[C@@H](CCCCN)C(=O)N[C@H](C(=O)N[C@@H](CC(=O)O)C(=O)N1CCC[C@H]1C(=O)O)C(C)C)C(C)C` [3324.0663], the “Response (SFC/10^6) IL-5” value in experiment [1] (one donor per table line) is 302 SFC/10^6 and 107 SFC/10^6. For the same molecule, the “Response (SFC/10^6) IFNg” value in experiment [2] (one donor per table line) was found to be 73 SFC/10^6. The “Response (SFC/10^6) Total” value in experiment [3] (one donor per table line) was 73 SFC/10^6 and 302 SFC/10^6 and 107 SFC/10^6.

Regarding `CC(C)C[C@H](NC(=O)[C@H](Cc1ccc(O)cc1)NC(=O)[C@H](C)NC(=O)[C@H](CO)NC(=O)[C@H](CCC(=O)O)NC(=O)[C@@H](NC(=O)[C@H](C)NC(=O)[C@H](C)NC(=O)[C@@H](NC(=O)CNC(=O)[C@@H](N)CO)C(C)C)[C@@H](C)O)C(=O)N[C@@H](C)C(=O)N[C@@H](Cc1ccc(O)cc1)C(=O)N[C@@H](CCCNC(=N)N)C(=O)N[C@@H](CC(N)=O)C(=O)O` [3324.0829], the “Response (SFC/10^6) IL-5” value in experiment [1] (one donor per table line) is 347 SFC/10^6 and 167 SFC/10^6. Also, in experiment [2] (one donor per table line), the “Response (SFC/10^6) IFNg” value is 340 SFC/10^6 and 237 SFC/10^6. Further, the “Response (SFC/10^6) Total” value in experiment [3] (one donor per table line) is 687 SFC/10^6 and 403 SFC/10^6.

As to `CC[C@H](C)[C@H](NC(=O)CNC(=O)[C@@H](N)CCCNC(=N)N)C(=O)N[C@@H](CCC(=O)O)C(=O)N[C@@H](Cc1ccc(O)cc1)C(=O)N[C@H](C(=O)N[C@@H](CCC(N)=O)C(=O)N[C@@H](Cc1c[nH]cn1)C(=O)N[C@@H](CC(N)=O)C(=O)NCC(=O)N[C@H](C(=O)N[C@H](C(=O)N[C@@H](CCC(N)=O)C(=O)N[C@@H](CCC(=O)O)C(=O)N[C@@H](CO)C(=O)O)C(C)C)C(C)C)[C@@H](C)CC` [3324.0831], in experiment [1] (one donor per table line), the “Response (SFC/10^6) IL-5” value is 567 SFC/10^6 and 103 SFC/10^6. Also, the “Response (SFC/10^6) IFNg” value in experiment [2] (one donor per table line) was 220 SFC/10^6. Also, in experiment [3] (one donor per table line), the “Response (SFC/10^6) Total” value is 567 SFC/10^6 and 323 SFC/10^6.
